Entries after “also recorded” stand apart in the source; their conditions may differ.
Experiments:
[1] = tested on: EGFRm parental cells (HCC2279, HCC2935, HCC4006, II-18, NCI-H1975 and PC9); test: Incucyte Caspase-3/7 apoptosis assay in EGFRm parental cell lines; format: cell-based, human; settings: panel of 6 EGFRm cell lines; osimertinib 160 nM + Smac mimetic 1 μM vs osimertinib monotherapy; 48 h, normalised to DMSO
Experimental: Data was calculated as the number of apoptotic events divided by cell confluence, and normalised to the values for DMSO control. Data are presented on a log scale to better visualize all cell lines.
FIG. 3: Multiple Smac mimetic molecules enhance osimertinib-induced apoptosis in NCI-H1975 and PC9 cells Caspase-3/7 activation, a direct readout of apoptotic initiation was measured after 48 h of treatment with either osimertinib monotherapy or its combination with 4 distinct Smac mimetic small molecules in NCI-H1975 and PC9 cells. Data was calculated as the number of apoptotic events divided by cell confluence, and normalised to the values for DMSO control.
PC9 is a cell line derived from human lung adenocarcinoma harbouring the activating mutation in EGFR del E746_A750 (Ex19-del). HCC2935 is a cell line derived from a pleural effusion of human lung adenocarcinoma harbouring the activating mutation in EGFR del E746_T751 (Ex19-del). […]
EGFRm parental cells (HCC2279, HCC2935, HCC4006, II-18, NCI-H1975 and PC9) were seeded in 96 well plated at a concentration of 5000 cells/well. […] Cells were then placed on the Incucyte S3 imaging system and both cell confluence and green fluorescence were measured, every 4 hours. After 96 h the experiment was terminated, and apoptosis values calculated by dividing the number of individual green points (apoptosis events) by cell confluence. […]

[2] = tested on: subcutaneous PC9 model in nude mice; test: PC9 xenograft tumour growth inhibition and re-growth in vivo
Experimental: Tumour growth inhibition following dosing of vehicle, osimertinib 25 mg/kg PO QD, AZD5582 2 mg/kg IV QW, or the combination of the two agents for 3 weeks followed by a period of re-growth in the subcutaneous, PC9 model in nude mice. Data are represented as mean ±SEM (n=8 per group) or as tumour volume of individual mouse.
Tumour growth inhibition following dosing of vehicle for 3 weeks, osimertinib 25 mg/kg PO QD for 6 weeks, or osimertinib 25 mg/kg PO QD for 3 weeks followed by the combination of osimertinib 25 mg/kg PO QD and AZD5582 2 mg/kg IV QW for 3 weeks followed by a period of re-growth in the subcutaneous, PC9 model in nude mice. Data are represented as mean±SEM (n=8 per group) or as tumour volume of individual mouse.

[3] = tested on: PC9, HCC2935 and NCI-H1975 cells; test: Incucyte cell confluence: formation and regrowth of osimertinib drug tolerant persister cells; format: cell-based, human
Experimental: HCC2935, NCI-H1975 and PC9 cells were treated with osimertinib, AZD5582 or the combination of the two agents for 10 days, after which time drug was removed to allow regrowth of the cells. Cell confluence was measured on the Incucyte imaging platform as a surrogate for cell number.
Representative images were taken from the cell growth experiments in PC9 and HCC2935 cell lines described in FIG. 4. Cells treated for 10 days with either osimertinib alone or osimertinib in combination with AZD5582, at which time drug was removed from 7 days.
FIG. 6: osimertinib DTPs are sensitive to Smac mimetic treatment. Parental PC9 cells were treated with the combination of osimertinib and 4 distinct Smac mimetics to determine the rate of DTP survival and re-growth. Cell confluence was measured on the Incucyte imaging platform as a surrogate for DTP number.
PC9 is a cell line derived from human lung adenocarcinoma harbouring the activating mutation in EGFR del E746_A750 (Ex19-del). HCC2935 is a cell line derived from a pleural effusion of human lung adenocarcinoma harbouring the activating mutation in EGFR del E746_T751 (Ex19-del). HCC2279 is a cell line derived from a human lung adenocarcinoma bearing the activating mutation in EGFR del Em746_A750. HCC4006 is a cell line derived from a human lung adenocarcinoma bearing the activating mutation in EGFR del E746_A750. […]

[4] = tested on: c-IAP1 and c-IAP2 mRNA (BIRC2 and BIRC3) in PC9, HCC2935 and NCI-H1975 cell lines; test: RNAseq gene expression of c-IAP1 and c-IAP2 mRNA in EGFRm cell lines after osimertinib treatment; format: cell-based, human; settings: osimertinib acute (24 h) or chronic (14 d, DTP) vs untreated (DMSO), particularly chronic schedule
Experimental: FIG. 1: A subset of EGFRm NSCLC cell lines upregulate the expression of c-IAP1 and c-IAP2 mRNA after prolonged treatment with osimertinib. RNA sequencing (RNAseq) was performed in cells chronically treated with osimertinib (14 days) and compared to untreated (DMSO) or acutely treated (24 h) cells. Levels of BIRC2 mRNA (c-IAP1) and BIC3 mRNA (c-IAP2) were plotted on a log 2 scale.
PC9 is a cell line derived from human lung adenocarcinoma harbouring the activating mutation in EGFR del E746_A750 (Ex19-del). HCC2935 is a cell line derived from a pleural effusion of human lung adenocarcinoma harbouring the activating mutation in EGFR del E746_T751 (Ex19-del). HCC2279 is a cell line derived from a human lung adenocarcinoma bearing the activating mutation in EGFR del Em746_A750. HCC4006 is a cell line derived from a human lung adenocarcinoma bearing the activating mutation in EGFR del E746_A750. II-18 is a cell line derived from a human lung adenocarcinoma bearing the activating mutation in EGFR L858R. NCI-H1975 is a cell line derived from a human lung adenocarcinoma bearing the activating mutation in EGFR L858R and the gatekeeper mutation in EGFR T790M.
The purpose of this experiment was to use RNAseq to analyse gene expression in EGFRm cell lines treated both chronically (14 d) or acutely (24 h) with osimertinib.

Compound: CN[C@@H](C)C(=O)N[C@H](C(=O)N1CCC[C@H]1C(=O)N[C@H]1c2ccccc2C[C@H]1OCC#CC#CCO[C@@H]1Cc2ccccc2[C@@H]1NC(=O)[C@@H]1CCCN1C(=O)[C@@H](NC(=O)[C@H](C)NC)C1CCCCC1)C1CCCCC1 [AZD5582]
- number of apoptotic events (Caspase-3/7 activation) normalised to cell confluence [1]: enhances osimertinib-induced apoptosis
- tumour growth inhibition / regrowth after treatment release ([2]; minimal residual disease: osimertinib 21 days, then osimertinib + AZD5582 2 mg/kg IV QW 21 days, vs osimertinib alone 42 days, 2 mg/kg): delay of regrowth; also recorded: enhances the antiproliferative effects of osimertinib
- tumour growth inhibition / regrowth after treatment release ([2]; osimertinib 25 mg/kg PO QD + AZD5582 2 mg/kg IV QW for 21 days vs osimertinib alone for 21 days): delay of regrowth; also recorded: enhances the antiproliferative effects of osimertinib
- percentage confluency (a measure of cell growth) ([3]; PC9, HCC2935 or NCI-H1975, 10 days combination with osimertinib (500 nM) then drug removal, vs 10 days osimertinib alone): lower percentage confluency; also recorded: enhances the antiproliferative effects of osimertinib
- regrowth of cells after drug removal (representative images) ([3]; PC9 and HCC2935, 10 days osimertinib + AZD5582, then drug removed for 7 days): fail to regrow after drug removal

Compound: C=CC(=O)Nc1cc(Nc2nccc(-c3cn(C)c4ccccc34)n2)c(OC)cc1N(C)CCN(C)C [osimertinib, N-(2-{2-dimethylaminoethyl-methylamino}-4-methoxy-5-{[4-(1-methylindol-3-yl)pyrimidin-2-yl]amino}phenyl) prop-2-enamide]
- mRNAs coding for c-IAP1 and c-IAP2 (BIRC2 and BIRC3) expression [4]: significantly upregulated
